Assay results from ChEMBL document CHEMBL1149545, “Thyroid receptor ligands. Part 8: Thyromimetics derived from N-acylated-alpha-amino acid derivatives displaying modulated pharmacological selectivity compared with KB-141” (Bioorg Med Chem Lett, 2007).

Columns and labels:
[1] = species on record: Homo sapiens; test: Selectivity ratio of IC50 for thyroid hormone receptor alpha-1 to IC50 for thyroid hormone receptor beta-1
[2] = system: CHO-K1; details: Homo sapiens
Description: (§1) Activity against TRAFbeta expressed in CHOK1 cells by alkaline phosphatse reporter gene assay

[3] = molecular target: T1, Thyroid hormone receptor alpha (Homo sapiens, UniProt P10827); test: biochemical
T1 sequence (P10827 whole entry): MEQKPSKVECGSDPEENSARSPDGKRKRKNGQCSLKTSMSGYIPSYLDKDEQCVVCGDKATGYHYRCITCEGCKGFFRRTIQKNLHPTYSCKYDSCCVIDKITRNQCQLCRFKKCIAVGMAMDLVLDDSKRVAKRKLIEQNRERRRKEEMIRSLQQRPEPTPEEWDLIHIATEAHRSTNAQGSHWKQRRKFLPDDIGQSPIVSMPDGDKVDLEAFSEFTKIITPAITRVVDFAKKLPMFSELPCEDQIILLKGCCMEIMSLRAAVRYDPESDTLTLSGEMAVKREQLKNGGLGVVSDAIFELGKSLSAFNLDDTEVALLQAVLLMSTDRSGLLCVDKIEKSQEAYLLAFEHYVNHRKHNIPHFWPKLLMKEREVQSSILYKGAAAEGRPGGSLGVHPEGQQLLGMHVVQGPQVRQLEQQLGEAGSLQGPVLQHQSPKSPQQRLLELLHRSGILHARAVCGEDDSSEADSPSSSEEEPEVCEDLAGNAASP
Description: Binding affinity at human thyroid hormone receptor alpha 1 expressed in CHOK1 cells

[4] = cells; details: Homo sapiens, CHO-K1
Description: as §1

[5] = molecular target: T2, Thyroid hormone receptor beta (Homo sapiens, UniProt P10828); test: biochemical
T2 sequence (P10828 whole entry): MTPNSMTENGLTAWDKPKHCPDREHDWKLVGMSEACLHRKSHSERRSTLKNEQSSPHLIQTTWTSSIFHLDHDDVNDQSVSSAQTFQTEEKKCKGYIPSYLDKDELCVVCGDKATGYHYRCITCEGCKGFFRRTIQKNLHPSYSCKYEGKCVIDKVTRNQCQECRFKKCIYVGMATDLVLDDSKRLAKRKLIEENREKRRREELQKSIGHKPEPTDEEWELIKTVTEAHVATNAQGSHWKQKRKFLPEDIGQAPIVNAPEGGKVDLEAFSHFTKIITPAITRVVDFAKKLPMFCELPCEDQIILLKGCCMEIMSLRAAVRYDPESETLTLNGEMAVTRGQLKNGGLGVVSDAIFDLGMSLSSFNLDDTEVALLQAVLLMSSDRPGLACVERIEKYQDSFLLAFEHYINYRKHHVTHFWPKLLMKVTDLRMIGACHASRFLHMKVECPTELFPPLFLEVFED
Description: Binding affinity at human thyroid hormone receptor beta-1 expressed in CHOK1 cells

[6] = system: CHO-K1; details: Homo sapiens; remark: listed apart in the source
Description: (§2) Activity against TRAF-alpha-1 expressed in CHOK1 cells by alkaline phosphatase reporter gene assay

[7] = cells; details: Homo sapiens, CHO-K1; remark: listed apart in the source
Description: as §2

[8] = system: Rattus norvegicus; test: Decrease in TSH in po dosed cholesterol-fed rat; type: functional
[9] = system: Rattus norvegicus; test: Decrease in cholesterol in po dosed cholesterol-fed rat; type: functional
[10] = system: Rattus norvegicus; test: Increase in heart rate in po dosed cholesterol-fed rat; type: functional
[11] = species on record: Rattus norvegicus; test: Ratio of ED15 for heart rate in cholesterol-fed rat to ED50 for cholesterol level in cholesterol-fed rat; type: functional
[12] = species on record: Rattus norvegicus; test: Ratio of ED30 for TSH in cholesterol-fed rat to ED50 for cholesterol level in cholesterol-fed rat; type: functional

Compound	Ratio IC50 [1]	IC50 [3] [nM]	EC50 [4] [nM]	IC50 [5] [nM]	EC50 [7] [nM]	Activity [2] [%]	Activity [6] [%]	ED30 [8] [nmol/kg/day]	ED50 [9] [nmol/kg/day]	ED15 [10] [nmol/kg/day]	Ratio [11]	Ratio [12]
CC(C)c1cc(Oc2c(Br)cc(CC(=O)N[C@@H](C(=O)O)c3ccccc3)cc2Br)ccc1O	6	5.5	0.73	0.6	1.5	85	65					
CC(C)c1cc(Oc2c(Cl)cc(CC(=O)O)cc2Cl)ccc1O								32	72	2900		
N[C@@H](Cc1cc(I)c(Oc2ccc(O)c(I)c2)c(I)c1)C(=O)O [LIOTHYRONINE]								6.7	21	31		
CC(C)c1cc(Oc2c(Br)cc(CC(=O)N[C@@H](CC(=O)O)C(=O)O)cc2Br)ccc1O	0.9	460	1300	290	1500	84	72					
Cc1cc(Oc2c(Br)cc(CC(=O)N[C@H](C(=O)O)C(C)C)cc2Br)cc(C(C)C)c1O	0.34	1500	1100	2600	170	27	13					
CC(C)c1cc(Oc2c(Br)cc(CC(=O)N[C@H](C(=O)O)c3ccccc3)cc2Br)ccc1O	5.7	7.5		0.78								
CC(C)c1cc(Oc2c(Br)cc(CC(=O)N[C@H](C(=O)O)C(C)C)cc2Br)cc(Cl)c1O	0.29	670	210	1400	65	31	21					

Now from value to compound, other results behind:

Ratio IC50 [1]	IC50 [3] [nM]	EC50 [4] [nM]	IC50 [5] [nM]	EC50 [7] [nM]	Compound	Activity [2] [%]	Activity [6] [%]	ED30 [8] [nmol/kg/day]	ED50 [9] [nmol/kg/day]	ED15 [10] [nmol/kg/day]	Ratio [11]	Ratio [12]
4.3	88	11	12	17	CC(C)c1cc(Oc2c(Br)cc(CC(=O)N[C@H](C(=O)O)C(C)C)cc2Br)cc(F)c1O	88	78					
8.3	83	7.6	5.9	15	CC(C)c1cc(Oc2c(Br)cc(CC(=O)N[C@H](C)C(=O)O)cc2Br)ccc1O	100	83					
3.8	168	38	26	66	CC(C)c1cc(Oc2c(Br)cc(CC(=O)N[C@H](CC(=O)O)C(=O)O)cc2Br)ccc1O	88	74					
5.9	26	42	2.7	103	CC(C)c1cc(Oc2c(Br)cc(CC(=O)NCC(=O)O)cc2Br)ccc1O	85	75					
4.5	10	2.6	1.3	7.2	CC(C)c1cc(Oc2c(Br)cc(CC(=O)N[C@@H](C)C(=O)O)cc2Br)ccc1O	92	81					
8.2	9.8	1.2	0.71	2.3	CC(C)c1cc(Oc2c(Br)cc(CC(=O)N[C@@H](C(=O)O)C(C)C)cc2Br)ccc1O	100	88					
9.4	4.3	0.77	0.27	1.4	CC(C)c1cc(Oc2c(Br)cc(CC(=O)N[C@H](C(=O)O)C(C)C)cc2Br)ccc1O	92	78	242	82	1580	19	3
